Source: patent US8003660B2, “Modulators of muscarinic receptors” (Vertex Pharmaceuticals Incorporated, priority 2006, dated 2011)
pEC50: −log10 of the molar value. Read-outs that look alike come from different tables or passages of the source.

How the values were obtained:
Format in all cases: cell-based
[1] = target: T1, M3 muscarinic receptor (Homo sapiens, UniProt P20309); test: Functional mobilization of intracellular calcium (FLIPR) in CHO cells expressing M3; conditions: for pEC50: CHO cells expressing M3, FLIPR calcium; for Emax: CHO
T1 construct: expressed in transfected cells; host or cells: CHO (M3-CHO)
Method: (§1) Functional Mobilization of Intracellular Calcium to Determine Muscarinic Receptor Activity:
(§2) CHO cells expressing muscarinic receptors (M1 to M5) are grown as monolayers in tissue culture flasks at 37° C. in a humidified atmosphere containing 5% CO2 and passaged every 3-5 days. The growth media is Dulbecco's modified eagles medium (DMEM, Gibco Cat# 12430-054), containing 25 mM Hepes and supplemented with Fetal Bovine Serum (Hyclone, cat# SH30071.03), 0.1 mM of MEM non-essential amino acids (GIBCO, Cat# 11140-050), 1 mM MEM Sodium Pyruvate (GIBCO Cat# 11360-070) and 100 units/ml of Penicillin G and 100 μg/ml of Streptomycin (GIBCO Cat# 15140-122). The recombinant muscarinic receptor cell lines are grown under antibiotic pressure with media containing 25 μg/ml zeocin and 500 μg/ml G418 (M1-CHO), 4 μg/ml puromycin, 50 μg/ml zeocin and 2.5 μg/ml blasticidin (M2 and M4-CHO) or 50 μg/ml zeocin and 4 μg/ml puromycin (M3 and M5-CHO).
(§3) Cells are harvested at 80-90% confluence using Versene (GIBCO Cat# 15040-066), collected by centrifugation and seeded 18-24 hrs prior to running the calcium assay at a density of 5,000-10,000 cells/well in […], clear-bottomed 384-well plates (BD Biocoat, poly-D-lysine, Cat#356663). The day of the experiment, the cells are washed with a plate washer (Bioteck Instruments, ELX 405) using bath 1 buffer (140 mM NaCl, 4,5 mM KCl, 2 mM CaCl2, 1 mM MgCl2, 10 mM Hepes-Na, 10 mM Glucose, pH 7.4, with NaOH) containing 1 mM Probenecid. Next, the calcium dye Fluo-3 (25 μl/well of Fluo-3 AM at 4 μM, Molecular Probes F-1241, in Bath 1 buffer containing 1 mM Probenecid) is added to the 25 μl of Bath 1 remaining in each well after the plate wash and the dye is loaded at 37° C. in the tissue culture incubator for 60-90 min. The fluorescent dye is removed using the plate washer with Bath 1 containing 1 mM Probenecid, leaving 25 μl/well of this solution after the wash. Alternatively, cells can be loaded with the calcium indicator from Molecular Devices (Calcium 3 Assay Reagents, Cat #R7181) adding 5 μl of a 5× solution dye in Bath 1 containing 1 mM Probenecid (10 ml per dye flask cat#R7182 to generate a solution […]) to 20 μl of the same buffer. After loading for 60 min, the experiment can be run without having to remove the dye.
(§4) Compounds are prepared at a 2× fold concentration in a 96-well plate (round bottom, Costar Corning cat#3656), by reconstituting the pre-spotted compounds in bath 1 containing 1 mM probenecid. The final concentration DMSO is 0.5%, and the amount of DMSO is normalized across the assay plate. To determine an agonist action of the compounds on muscarinic receptors, the reconstituted compounds are added (25 μl compound/well) to the cell assay plate (containing 25 μl/well) using the multi-channel robotic system of the FLIPR 3 Instrument (Molecular Devices, Sunnyvale, Calif.). To determine a functional inhibitory action of the compounds on muscarinic receptors, the reconstituted compounds are added (25 μl compound/well) to the assay plate and pre-incubated for 15 min prior to adding 25 μl of Carbachol at 3× the EC80 for each muscarinic subtype. Alternatively, the compounds can be co-applied simultaneously with the agonist. In both assay modes, the fluorescence is recorded for 60 sec (excitation wavelength is […] and emission wavelength 540 nm) using the FLIPR 3 instrument.
(§5) The potency, efficacy and selectivity of the muscarinic compounds were evaluated by screening the compound activity across the whole family (M1 to M5 cells). Compounds were also screened for activity on other proteins such as other GPCRs and ion channels to determine selectivity on M4 receptors.

[2] = target: T2, M1 muscarinic receptor (Homo sapiens, UniProt P11229); test: Functional mobilization of intracellular calcium (FLIPR) in CHO cells expressing M1; conditions: for pEC50: CHO cells expressing M1, FLIPR calcium; for Emax: CHO
T2 construct: expressed in transfected cells; host or cells: CHO (M1-CHO)
T2 sequence (P11229 1-460): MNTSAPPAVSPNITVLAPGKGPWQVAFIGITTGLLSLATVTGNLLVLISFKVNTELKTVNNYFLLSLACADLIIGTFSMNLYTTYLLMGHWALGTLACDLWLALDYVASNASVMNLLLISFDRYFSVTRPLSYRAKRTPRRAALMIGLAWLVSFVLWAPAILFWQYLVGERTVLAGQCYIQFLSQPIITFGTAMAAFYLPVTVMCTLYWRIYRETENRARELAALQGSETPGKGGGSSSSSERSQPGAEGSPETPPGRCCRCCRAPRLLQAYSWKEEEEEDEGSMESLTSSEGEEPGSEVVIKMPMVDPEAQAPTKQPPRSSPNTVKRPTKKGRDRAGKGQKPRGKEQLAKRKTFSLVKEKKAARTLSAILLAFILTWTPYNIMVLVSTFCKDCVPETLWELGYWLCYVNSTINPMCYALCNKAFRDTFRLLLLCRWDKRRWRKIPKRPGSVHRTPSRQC
Method: as §1, §2, §3, §4, §5

[3] = target: T3, M4 muscarinic receptor (Homo sapiens, UniProt P08173); test: Functional mobilization of intracellular calcium (FLIPR) in CHO cells expressing M4; conditions: for pEC50: CHO cells expressing M4, FLIPR calcium; for Emax: CHO
T3 construct: expressed in transfected cells; host or cells: CHO (M4-CHO)
T3 sequence (P08173 1-479): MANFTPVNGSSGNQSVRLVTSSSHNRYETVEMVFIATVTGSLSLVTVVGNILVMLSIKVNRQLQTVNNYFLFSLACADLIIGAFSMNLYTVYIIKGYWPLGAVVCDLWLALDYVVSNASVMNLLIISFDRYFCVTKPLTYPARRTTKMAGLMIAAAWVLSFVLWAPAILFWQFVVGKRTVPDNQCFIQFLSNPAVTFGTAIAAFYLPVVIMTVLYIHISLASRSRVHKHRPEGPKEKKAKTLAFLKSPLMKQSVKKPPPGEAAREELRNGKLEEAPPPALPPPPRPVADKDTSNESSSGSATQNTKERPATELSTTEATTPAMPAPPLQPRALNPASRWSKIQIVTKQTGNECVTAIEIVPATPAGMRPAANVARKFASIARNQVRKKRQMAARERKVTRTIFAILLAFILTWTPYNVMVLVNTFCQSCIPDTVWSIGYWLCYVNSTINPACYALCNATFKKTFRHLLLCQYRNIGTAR
Method: as §1, §2, §3, §4, §5

[4] = target: T4, M2 muscarinic receptor (Homo sapiens, UniProt P08172); test: Functional mobilization of intracellular calcium (FLIPR) in CHO cells expressing M2; conditions: for pEC50: CHO cells expressing M2, FLIPR calcium; for Emax: CHO
T4 construct: expressed in transfected cells; host or cells: CHO (M2-CHO)
T4 sequence (P08172 1-466): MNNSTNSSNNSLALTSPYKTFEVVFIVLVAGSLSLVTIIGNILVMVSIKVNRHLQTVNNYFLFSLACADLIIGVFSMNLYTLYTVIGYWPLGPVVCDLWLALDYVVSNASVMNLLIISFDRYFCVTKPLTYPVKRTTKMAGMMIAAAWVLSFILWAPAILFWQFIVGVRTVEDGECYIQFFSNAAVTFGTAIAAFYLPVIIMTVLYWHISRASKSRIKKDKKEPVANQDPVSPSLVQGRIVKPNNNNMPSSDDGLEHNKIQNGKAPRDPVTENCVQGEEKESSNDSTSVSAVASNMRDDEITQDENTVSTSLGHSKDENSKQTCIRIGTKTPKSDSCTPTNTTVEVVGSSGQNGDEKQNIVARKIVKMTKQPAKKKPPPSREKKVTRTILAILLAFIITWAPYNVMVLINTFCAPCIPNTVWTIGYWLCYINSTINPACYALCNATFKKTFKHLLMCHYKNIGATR
Method: as §1, §2, §3, §4, §5

[5] = 100% = maximum response obtained with the Carbachol control, read-out: M3 Efficacy
[6] = 100% = maximum response obtained with the Carbachol control, read-out: M1 Efficacy
[7] = 100% = maximum response obtained with the Carbachol control, read-out: M4 Efficacy
[8] = 100% = maximum response obtained with the Carbachol control, read-out: M2 Efficacy
[9] = 100% efficacy = maximum response obtained with the Carbachol control

T1 sequence (P20309 whole entry): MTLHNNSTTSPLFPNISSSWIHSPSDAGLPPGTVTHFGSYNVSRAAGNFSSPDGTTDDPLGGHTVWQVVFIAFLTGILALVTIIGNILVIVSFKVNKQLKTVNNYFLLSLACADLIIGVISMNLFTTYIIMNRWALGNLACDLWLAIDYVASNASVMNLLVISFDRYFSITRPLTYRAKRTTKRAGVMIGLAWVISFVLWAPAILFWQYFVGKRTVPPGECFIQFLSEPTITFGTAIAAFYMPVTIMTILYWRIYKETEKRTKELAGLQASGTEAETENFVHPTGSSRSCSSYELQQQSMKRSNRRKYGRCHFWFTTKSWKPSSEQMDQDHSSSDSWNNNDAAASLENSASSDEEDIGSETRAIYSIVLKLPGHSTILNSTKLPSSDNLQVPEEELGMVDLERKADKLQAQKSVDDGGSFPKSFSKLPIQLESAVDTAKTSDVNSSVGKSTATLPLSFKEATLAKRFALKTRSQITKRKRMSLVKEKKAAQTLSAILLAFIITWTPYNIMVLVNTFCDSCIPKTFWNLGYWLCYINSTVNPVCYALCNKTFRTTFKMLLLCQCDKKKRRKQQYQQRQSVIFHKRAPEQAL

SMILES	pEC50 [1]	Emax [1, 5] [%]	pEC50 [2]	Emax [2, 6] [%]	pEC50 [3]	Emax [3, 7] [%]	pEC50 [4]	Emax [4, 8] [%]	M3 Activity ([1]; CHO cells expressing M3, FLIPR calcium assay)	Emax [1, 9] [%]	M1 Activity ([2]; CHO cells expressing M1, FLIPR calcium assay)	Emax [2, 9] [%]	M4 Activity ([3]; CHO cells expressing M4, FLIPR calcium assay)	Emax [3, 9] [%]	M2 Activity ([4]; CHO cells expressing M2, FLIPR calcium assay)	Emax [4, 9] [%]
CCN(C(=O)C1CCN(C(=O)OC)CC1)[C@H]1CCC2(CCN(CCC(C)(C)C)CC2)c2ccccc21 [compound 166]	< 5.30	< 25	< 5.30	25 to 100	> 5.70	25 to 100	< 5.30	< 25	–	–	–	–	–	–	–	–
Cn1cncc1C(=O)N[C@H]1CCC2(CCN(CCC(C)(C)C)CC2)c2ccccc21 [compound 219]	–	–	–	–	–	–	–	–	+ (activity was measured to be greater than 5.0 μM)	< 25	+++ (activity was measured to be less than 2.0 μM)	25 to 100	+++ (activity was measured to be less than 2.0 μM)	25 to 100	+++ (activity was measured to be less than 2.0 μM)	25 to 100
CC(=O)N[C@H]1CCC2(CCN(CCC(C)CCC=C(C)C)CC2)c2ccccc21 (stereo partly drawn) [compound 68]	< 5.30	< 25	> 5.70	> 100	> 5.70	25 to 100	> 5.70	25 to 100	–	–	–	–	–	–	–	–
CC(C)(C)CCN1CCC2(CCC(C#N)c3ccccc32)CC1 (stereo not drawn) [compound 97]	< 5.30	< 25	> 5.70	25 to 100	> 5.70	25 to 100	> 5.70	25 to 100	–	–	–	–	–	–	–	–
CC(=O)N(C(C)C)[C@H]1CCC2(CCN(CCC(C)C)CC2)c2ccccc21 [compound 47]	< 5.30	< 25	5.30 to 5.70	25 to 100	5.30 to 5.70	25 to 100	< 5.30	< 25	–	–	–	–	–	–	–	–
CC(=O)NCCC(=O)N[C@@H]1CCC2(CCN(CCC(C)(C)C)CC2)c2cc(F)ccc21 [compound 20]	< 5.30	< 25	> 5.70	25 to 100	> 5.70	25 to 100	> 5.70	25 to 100	–	–	–	–	–	–	–	–
